Test results as given in US8664257B2, “Oxygen-substituted 3-heteroaroylamino-propionic acid derivatives and their use as pharmaceuticals” (Sanofi, priority 2010, dated 2014).

Biological target: T1, Recombinant human cathepsin A (Homo sapiens, UniProt P10619)
T1 construct: Recombinant human cathepsin A (residues 29-480, with a C-terminal 10-His tag); 10-His (C); purchased R&D Systems 1049-SE
T1 sequence (P10619 29-312 limits assumed): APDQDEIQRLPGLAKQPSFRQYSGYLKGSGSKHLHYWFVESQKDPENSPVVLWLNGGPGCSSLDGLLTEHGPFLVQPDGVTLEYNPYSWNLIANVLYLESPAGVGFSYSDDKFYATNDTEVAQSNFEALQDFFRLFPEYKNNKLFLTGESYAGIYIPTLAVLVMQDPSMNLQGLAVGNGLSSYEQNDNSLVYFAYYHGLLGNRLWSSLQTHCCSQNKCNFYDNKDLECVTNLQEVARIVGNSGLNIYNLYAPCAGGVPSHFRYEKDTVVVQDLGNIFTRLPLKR
T1 sequence (P10619 327-480 limits assumed): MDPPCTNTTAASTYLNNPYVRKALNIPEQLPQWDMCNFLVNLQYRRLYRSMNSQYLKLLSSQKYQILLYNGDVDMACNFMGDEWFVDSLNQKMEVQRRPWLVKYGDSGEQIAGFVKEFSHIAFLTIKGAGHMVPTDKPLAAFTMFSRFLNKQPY
Experiment: Cathepsin A inhibitory activity
Type: biochemical
Conditions: number printed in place of a class symbol; unit from footnote (2); read-out: Activity (2): Cathepsin A inhibitory activity, IC50 printed as a numeric bound
In short: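 Human cathepsin A (res. 29-480, C-His10) pre-activated with cathepsin L (MES pH 6.0, DTT, 15 min, 37 °C; quenched with 10 μM E-64). Enzyme (833 ng/ml) preincubated 15 min RT with compound in MES pH 5.5/DTT, then 2 μM Bodipy FL-bradykinin for 15 min RT. Capillary electrophoresis product/substrate peak areas; IC50 from % inhibition.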

Row | SMILES | IC50 [nM]
1 | CC(C)[C@@](C)(O)COc1cc(C(=O)N[C@@H](CC(=O)O)c2ccccc2Cl)nn1-c1ccccc1F [Example 861, (S)-3-(2-Chloro-phenyl)-3-{[1-(2-fluoro-phenyl)-5-((R)-2-hydroxy-2,3-dimethyl-butoxy)-1H-pyrazole-3-carbonyl]-amino}-propionic acid] | > 30000

Same assay, conditions: read-out: Activity (2): Cathepsin A inhibitory activity, IC50 class

Row | SMILES | IC50 [nM]
2 | CC(C)(C)[C@@](C)(O)COc1cc(C(=O)NC(CC(=O)O)C2CCCCC2)nn1-c1ccccc1F (stereo partly drawn) [Example 820, 3-Cyclohexyl-3-{[1-(2-fluoro-phenyl)-5-((R)-2-hydroxy-2,3,3-trimethyl-butoxy)-1H-pyrazole-3-carbonyl]-amino}-propionic acid] | < 100
3 | CC(C)[C@@](C)(O)COc1cc(C(=O)NC(CC(=O)O)Cc2ccccc2)nn1-c1ccccc1F (stereo partly drawn) [Example 821, 3-{[1-(2-Fluoro-phenyl)-5-((R)-2-hydroxy-2,3-dimethyl-butoxy)-1H-pyrazole-3-carbonyl]-amino}-4-phenyl-butyric acid] | < 100
4 | COc1ccccc1[C@H](CC(=O)O)NC(=O)c1cc(OC[C@](C)(O)C(C)C)n(-c2ccccc2F)n1 [Example 822, (S)-3-{[1-(2-Fluoro-phenyl)-5-((R)-2-hydroxy-2,3-dimethyl-butoxy)-1H-pyrazole-3-carbonyl]-amino}-3-(2-methoxy-phenyl)-propionic acid] | < 100
5 | CC(C)CC(CC(=O)O)NC(=O)c1cc(OC[C@](C)(O)C(C)C)n(-c2ccccc2F)n1 (stereo partly drawn) [Example 823, 3-{[1-(2-Fluoro-phenyl)-5-((R)-2-hydroxy-2,3-dimethyl-butoxy)-1H-pyrazole-3-carbonyl]-amino}-5-methyl-hexanoic acid] | 100 to 1000
6 | CC(C)[C@@](C)(O)COc1cc(C(=O)NC2(CC(=O)O)CCCC2)nn1-c1ccccc1F [Example 824, (1-{[1-(2-Fluoro-phenyl)-5-((R)-2-hydroxy-2,3-dimethyl-butoxy)-1H-pyrazole-3-carbonyl]-amino}-cyclopentyl)-acetic acid] | 100 to 1000
7 | CC(C)[C@](C)(O)COc1cc(C(=O)NC2(CC(=O)O)CCCC2)nn1-c1ccccc1F [Example 825, (1-{[1-(2-Fluoro-phenyl)-5-((S)-2-hydroxy-2,3-dimethyl-butoxy)-1H-pyrazole-3-carbonyl]-amino}-cyclopentyl)-acetic acid] | 100 to 1000
8 | CC(C)[C@](C)(O)COc1cc(C(=O)NC(CC(=O)O)Cc2ccccc2)nn1-c1ccccc1F (stereo partly drawn) [Example 826, 3-{[1-(2-Fluoro-phenyl)-5-((S)-2-hydroxy-2,3-dimethyl-butoxy)-1H-pyrazole-3-carbonyl]-amino}-4-phenyl-butyric acid] | 100 to 1000
9 | CC(C)[C@@](C)(O)COc1cc(C(=O)NCC(C(=O)O)c2ccccc2)nn1-c1ccccc1F (stereo partly drawn) [Example 827, 3-{[1-(2-Fluoro-phenyl)-5-((R)-2-hydroxy-2,3-dimethyl-butoxy)-1H-pyrazole-3-carbonyl]-amino}-2-phenyl-propionic acid] | 100 to 1000
10 | CC(C)(C)[C@@H](O)COc1cc(C(=O)N[C@@H](CC(=O)O)c2ccc(Cl)cc2)nn1-c1ccccc1F [Example 828, (S)-3-(4-Chloro-phenyl)-3-{[1-(2-fluoro-phenyl)-5-((R)-2-hydroxy-3,3-dimethyl-butoxy)-1H-pyrazole-3-carbonyl]-amino}-propionic acid] | 100 to 1000
11 | CC(C)C(C)(O)COc1cc(C(=O)NC(CC(=O)O)Cc2ccccc2)nn1-c1ccccc1F (stereo not shown) [Example 829, 3-{[1-(2-Fluoro-phenyl)-5-(2-hydroxy-2,3-dimethyl-butoxy)-1H-pyrazole-3-carbonyl]-amino}-4-phenyl-butyric acid] | 100 to 1000
12 | CC(C)[C@](C)(O)COc1cc(C(=O)NCC(C(=O)O)c2ccccc2)nn1-c1ccccc1F (stereo partly drawn) [Example 830, 3-{[1-(2-Fluoro-phenyl)-5-((S)-2-hydroxy-2,3-dimethyl-butoxy)-1H-pyrazole-3-carbonyl]-amino}-2-phenyl-propionic acid] | 100 to 1000
13 | CC(C)(C)[C@](C)(O)COc1cc(C(=O)N[C@H](CC(=O)O)Cc2ccc(C#N)cc2)nn1-c1ccccc1F [Example 832, (S)-4-(4-Cyano-phenyl)-3-{[1-(2-fluoro-phenyl)-5-((S)-2-hydroxy-2,3,3-trimethyl-butoxy)-1H-pyrazole-3-carbonyl]-amino}-butyric acid] | 1000 to 30000
14 | CC(C)[C@](C)(O)COc1cc(C(=O)N[C@H](CC(=O)O)Cc2ccc(C#N)cc2)nn1-c1ccccc1F [Example 834, (S)-4-(4-Cyano-phenyl)-3-{[1-(2-fluoro-phenyl)-5-((S)-2-hydroxy-2,3-dimethyl-butoxy)-1H-pyrazole-3-carbonyl]-amino}-butyric acid] | 1000 to 30000
15 | CC(C)[C@](C)(O)COc1cc(C(=O)N[C@@H](CC(=O)O)c2ccccc2F)nn1-c1ccccc1F [Example 835, (S)-3-(2-Fluoro-phenyl)-3-{[1-(2-fluoro-phenyl)-5-((S)-2-hydroxy-2,3-dimethyl-butoxy)-1H-pyrazole-3-carbonyl]-amino}-propionic acid] | < 100
16 | CC(C)C(C)(O)COc1cc(C(=O)N[C@H](CC(=O)O)Cc2ccc(C#N)cc2)nn1-c1ccccc1F (stereo partly drawn) [Example 836, (S)-4-(4-Cyano-phenyl)-3-{[1-(2-fluoro-phenyl)-5-(2-hydroxy-2,3-dimethyl-butoxy)-1H-pyrazole-3-carbonyl]-amino}-butyric acid] | 1000 to 30000
17 | CC(C)[C@](C)(O)COc1cc(C(=O)N[C@H](CC(=O)O)Cc2ccccc2)nn1-c1ccccc1F [Example 837, (S)-3-{[1-(2-Fluoro-phenyl)-5-((S)-2-hydroxy-2,3-dimethyl-butoxy)-1H-pyrazole-3-carbonyl]-amino}-4-phenyl-butyric acid] | 1000 to 30000
18 | CC(C)C(C)(O)COc1cc(C(=O)N[C@H](CC(=O)O)Cc2ccccc2)nn1-c1ccccc1F (stereo partly drawn) [Example 838, (S)-3-{[1-(2-Fluoro-phenyl)-5-(2-hydroxy-2,3-dimethyl-butoxy)-1H-pyrazole-3-carbonyl]-amino}-4-phenyl-butyric acid] | 1000 to 30000
19 | CC(C)(C)C(=O)COc1cc(C(=O)N[C@@H](CC(=O)O)c2cccc(Cl)c2Cl)nn1-c1ccccc1F [Example 839, (S)-3-(2,3-Dichloro-phenyl)-3-{[5-(3,3-dimethyl-2-oxo-butoxy)-1-(2-fluoro-phenyl)-1H-pyrazole-3-carbonyl]-amino}-propionic acid] | < 100
20 | COc1ccc([C@H](CC(=O)O)NC(=O)c2cc(OC[C@@](C)(O)C(C)C)n(-c3ccccc3F)n2)cc1 [Example 840, (S)-3-{[1-(2-Fluoro-phenyl)-5-((S)-2-hydroxy-2,3-dimethyl-butoxy)-1H-pyrazole-3-carbonyl]-amino}-3-(4-methoxy-phenyl)-propionic acid] | 1000 to 30000
21 | CC(C)C[C@@H](CC(=O)O)NC(=O)c1cc(OC[C@@](C)(O)C(C)C)n(-c2ccccc2F)n1 [Example 841, (S)-3-{[1-(2-Fluoro-phenyl)-5-((S)-2-hydroxy-2,3-dimethyl-butoxy)-1H-pyrazole-3-carbonyl]-amino}-5-methyl-hexanoic acid] | 1000 to 30000
22 | CC(C)[C@](C)(O)COc1cc(C(=O)N[C@@H](CC(=O)O)c2ccc(Cl)cc2Cl)nn1-c1ccccc1F [Example 849, (S)-3-(2,4-Dichloro-phenyl)-3-{[1-(2-fluoro-phenyl)-5-((S)-2-hydroxy-2,3-dimethyl-butoxy)-1H-pyrazole-3-carbonyl]-amino}-propionic acid] | < 100
23 | COc1ccc([C@H](CC(=O)O)NC(=O)c2cc(OC[C@](C)(O)C(C)C)n(-c3ccccc3F)n2)cc1 [Example 850, (S)-3-{[1-(2-Fluoro-phenyl)-5-((R)-2-hydroxy-2,3-dimethyl-butoxy)-1H-pyrazole-3-carbonyl]-amino}-3-(4-methoxy-phenyl)-propionic acid] | < 100
24 | CC(C)(C)[C@@](C)(O)COc1cc(C(=O)N[C@@H](CC(=O)O)c2ccccc2F)nn1-c1ccccc1F [Example 854, (S)-3-(2-Fluoro-phenyl)-3-{[1-(2-fluoro-phenyl)-5-((R)-2-hydroxy-2,3,3-trimethyl-butoxy)-1H-pyrazole-3-carbonyl]-amino}-propionic acid] | 100 to 1000
25 | Cc1ccccc1[C@H](CC(=O)O)NC(=O)c1cc(OC[C@](C)(O)C(C)C)n(-c2ccccc2F)n1 [Example 857, (S)-3-{[1-(2-Fluoro-phenyl)-5-((R)-2-hydroxy-2,3-dimethyl-butoxy)-1H-pyrazole-3-carbonyl]-amino}-3-o-tolyl-propionic acid] | < 100
26 | Cc1ccc([C@H](CC(=O)O)NC(=O)c2cc(OC[C@](C)(O)C(C)C)n(-c3ccccc3F)n2)c(C)c1 [Example 859, (S)-3-(2,4-Dimethyl-phenyl)-3-{[1-(2-fluoro-phenyl)-5-((R)-2-hydroxy-2,3-dimethyl-butoxy)-1H-pyrazole-3-carbonyl]-amino}-propionic acid] | < 100
27 | Cc1ccc([C@H](CC(=O)O)NC(=O)c2cc(OC[C@](C)(O)C(C)C)n(-c3ccccc3F)n2)cc1 [Example 860, (S)-3-{[1-(2-Fluoro-phenyl)-5-((R)-2-hydroxy-2,3-dimethyl-butoxy)-1H-pyrazole-3-carbonyl]-amino}-3-p-tolyl-propionic acid] | < 100

Same assay, conditions: recombinant human cathepsin A 833 ng/ml, Bodipy FL-labeled bradykinin 2 μM, pH 5.5; read-out: CATH-A IC50

Row | SMILES | IC50 [nM]
28 | Cc1ccc([C@H](CC(=O)O)NC(=O)c2cc(OC[C@](C)(O)C(C)C)n(-c3ccccc3F)n2)cc1 [Example 860, (S)-3-{[1-(2-Fluoro-phenyl)-5-((R)-2-hydroxy-2,3-dimethyl-butoxy)-1H-pyrazole-3-carbonyl]-amino}-3-p-tolyl-propionic acid] | 76.1
